The values that follow come from patent publication US7919519B2, “S1P receptor modulating compounds and use thereof” (Epix Pharmaceuticals Inc., priority 2005, dated 2011).

pEC50: −log10 of the molar value. Where only a bound is given, the exact number is not on record here.

In this assay the target is T1, hS1P1 (Homo sapiens, UniProt P21453).
T1 construct: expressed in transfected cells
T1 sequence (P21453 whole entry): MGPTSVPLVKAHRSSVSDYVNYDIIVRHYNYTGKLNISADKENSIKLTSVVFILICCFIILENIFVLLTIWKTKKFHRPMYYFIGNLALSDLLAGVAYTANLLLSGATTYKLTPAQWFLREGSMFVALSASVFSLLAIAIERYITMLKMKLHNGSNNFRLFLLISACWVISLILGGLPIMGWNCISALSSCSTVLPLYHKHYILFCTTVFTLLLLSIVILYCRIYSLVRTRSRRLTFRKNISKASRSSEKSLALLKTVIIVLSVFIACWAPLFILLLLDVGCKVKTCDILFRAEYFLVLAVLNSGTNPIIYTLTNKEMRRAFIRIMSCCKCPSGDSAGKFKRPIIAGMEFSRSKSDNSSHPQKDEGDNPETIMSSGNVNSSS
The experiment in a line: hS1P1 EC50 (S1P receptor Ca2+ flux protocol, CHO K1 Gqi5 cells). In kind it is cell-based. Here is the method: S1P receptor activity may also be measured by an S1P receptor (e.g., hS1P1, hS1P3, rS1P1, rS1P3 and parental cell) Ca^2+ Flux protocol as described below:
1. Material • a. FLIPR buffer: 1×HBSS; 10 mM HEPES • b. Cell growth media: • i. human and rat S1P1 and S1P3: F12-Ham's media; 10% FBS (qualified); 1× Pen/Strep/Glu; 300 ug/mL Hygromycin; 400 ug/mL Geneticin • ii. Parental cell: human and rat S1P1 and S1P3: F12-Ham's media; 10% FBS (qualified); 1× Pen/Strep/Glu; 300 ug/mL Hygromycin; • c. Cell seeding media; F12-Ham's media; 10% FBS (Charcoal/dextran stripped); 1× Pen/Strep/Glu; • d. Cell dissociation buffer: Versene from Invitrogen • e. Agonist (S1P) dissolving buffer: 0.4% (w/v) fatty-acid free BSA (Sigma #A8806) in FLIPR buffer • f. FLIPR dye: BD PBX Calcium assay kit; Cat#641077 is composed of Calcium indicator (Cat#850000) and 100×PBX signal enhancer (cat#850001). The 100×PBX signal enhancer is diluted into FLIPR buffer 1:100 and the calcium indicator is then added at 1:1000 ratio. • g. Cell plates (96-well): Greiner Cat#655090 • h. Compound plates (96-well): Costar #3365 • i. S1P stock solution preparation: S1P is purchased from CalBioChem (Catalog #970471; 1 mg vial; custom prep using methanol, & nitrogen gas drying inside glass vial; Storage @ −20° C.). Dissolve 1 vial of S1P into 26.4 ml of agonist dissolving buffer in a 50 ml centrifuge tube; Remove label from bottle of S1P, open and drop entire bottle into tube. Sonicate at 37° for ½ hour. Clear solution of 100 μM will result. This stock solution is aliquoted and stored at −80 C
2. Cell line maintenance • a. V5 tags were added at the N-terminus of hS1P1, hS1P3, rS1P1 and rS1P3. All four genes were transfected into CHO K1 cells which stably express Gqi5. • b. hS1P1 and hS1P3 were established as stable clones and rS1P1 and rS1P3 were sorted by anti V5 tag and established as stable pools after sorting. • c. Parental cell line CHO/K1 Gqi5 is used as the control. • d. All the cells are maintained in cell growth media and splitted twice a week using Versene. • e. All the cell lines are used under passage 30.
3. Assay protocol • a. Cell seeding: Cells are lifted from the flask by Versene and seeded in cell plates at 50K/well in cell seeding media. Cells are grown overnight at 37 degree. • b. Cell loading: Cell seeding media is discarded. Cells are loaded with 50 ul of FLIPR dye at RT for 90 min. Signal is stable for up to 5 h after dye loading. • c. Agonist (S1P) preparation: Frozen stock of S1P is thawed out and sonicated at 37 c for 30 minutes every time before use. The stock is then diluted into FLIPR buffer at proper concentration. • d. Compound preparation: Compounds are dissolved in DMSO. A 3×, 10 point dilution of the compounds are carried out in DMSO. Then the compounds are diluted into assay buffer 133× so that the DMSO concentration is 0.75%. • e. Activity measurement: The fluorescence signal change of the cells upon compound addition is monitored in FLIPRtetra. 25 ul of compound is transferred into the cell plates (50 ul of FLIPR dye; DMSO concentration: 0.25%). Signal is recorded for 90 sec after compound addition. Then 50 ul of 500 nM S1P is added in the cell plate, and signal is recorded for 90 seconds upon addition.
4. Data analysis • a. Peak value is calculated for each compound/S1P addition • b. The peak value of S1P at 200 nM is used as high control (100%), and the peak value of buffer only is used as low control (0%). • c. Data is normalized against high and low controls using the following equation: POC—S=100*(RAW−LO)/(HI−LO) • d. Peak value is plotted against the concentration of compound. • e. Curve is fitted using the 4 parameter fit: Y=(A+(B/(1+((x/C)^D)))) • where: • Y is POC_S (or POC) • X is compound concentration • A is the minimum (EC50min or IC50min) • B is the maximum (EC50max or IC50max) • C is the inflection point (EC50IP or IC50IP) • D is the hill slope (EC50 slope or IC50 slope).
In general terms: A change in cytosolic calcium serves as a functional read-out for many receptors and channels.
`O=C(O)C1CCN(Cc2ccc(-c3cc4cc(C5CCCCC5)ccc4o3)cc2)CC1` [Compound 7, 1-(4-(5-cyclohexylbenzofuran-2-yl)benzyl)piperidine-4-carboxylic acid]: the negative logarithm of the EC50 (pEC50) (commonly −log10 of the EC50, conventionally taken in molar units) is less than 4.60.

`CCCCc1ccc2oc(-c3ccc(CN4CCC(C(=O)O)CC4)cc3)cc2c1` [Compound 8, 1-((4-(5-Butylbenzofuran-2-yl)phenyl)methyl)piperidine-4-carboxylic acid]: the pEC50 is less than 4.60.

Regarding `O=C(O)C1CCN(Cc2ccc(-c3cc4cc(Cc5ccccc5)ccc4o3)cc2)CC1` [Compound 9, 1-((4-(5-Benzylbenzofuran-2-yl)phenyl)methyl)piperidine-4-carboxylic acid], the negative logarithm of the EC50 (pEC50) was not above 4.60.

Take `O=C(O)C1CN(Cc2ccc(-c3cc4cc(CCc5ccccc5)ccc4o3)cc2)C1` [Compound 11, 1-((4-(5-phenethylbenzofuran-2-yl)phenyl)methyl)azetidine-3-carboxylic acid]: the negative logarithm of the EC50 (pEC50) was not above 4.60.

For the molecule `CC(C)Cc1ccc2oc(-c3ccc(CN4CCC(C(=O)O)CC4)cc3)cc2c1` [Compound 13, 1-(4-(5-isobutylbenzofuran-2-yl)benzyl)piperidine-4-carboxylic acid], the pEC50 was less than 4.60.

With `CCCCOc1ccc2cc(-c3ccc(CN4CC(C(=O)O)C4)cc3)oc2c1` [Compound 21, 1-((4-(6-Butoxybenzofuran-2-yl)phenyl)methyl)azetidine-3-carboxylic acid], the pEC50 is 6.70.

`CCCCOc1ccc2oc(-c3ncc(CN4CC(C(=O)O)C4)s3)cc2c1` [Compound 22, 1-((2-(5-butoxybenzofuran-2-yl)thiazol-5-yl)methyl)azetidine-3-carboxylic acid] showed a negative-log EC50 (pEC50) of 5.96.

The molecule `CCCCOc1ccc2oc(-c3ccc(CN4CC(C(=O)O)C4)cc3F)cc2c1` [Compound 23, 1-((4-(5-Butoxybenzofuran-2-yl)3-fluorophenyl)methyl)azetidine-3-carboxylic acid] had a pEC50 of 6.28.

The molecule `O=C(O)C1CN(Cc2ccc(-c3cc4cc(-c5cccs5)ccc4o3)cc2)C1` [Compound 28, 1-((4-(5-(thiophen-2-yl)benzofuran-2-yl)phenyl)methyl)azetidine-3-carboxylic acid] showed a negative logarithm of the EC50 (pEC50) not above 4.60.

As to `CC(C)(CC(=O)O)NCc1ccc(-c2cc3cc(Cc4ccccc4)ccc3o2)c(F)c1` [Compound 46, 3-((4-(5-Benzylbenzofuran-2-yl)-3-fluorophenyl)methylamino)-3-methylbutanoic acid], the pEC50 is less than 4.60.
